Experiments:
[1] = Gabapentin delivery into porcine skin grafts, UPLC-mass spectrometer; assay type: in vitro ADME; details: 1% gabapentin in saline, 12-20 hours
Protocol: Delivery of gabapentin with hyaluronic acid into skin in vitro was measured using porcine skin grafts, and compared to delivery of gabapentin from a composition of gabapentin in saline (with no decoy molecule). Groups consisted of A) 1% gabapentin in saline (n=8 replicates), B) 1% gabapentin plus 1% sodium hyaluronate decoy of 3,000 Da in saline (n=8 replicates) or C) saline alone (n=8 replicates) in donor cells.
Briefly, tissues were incubated overnight in 0.5 mL of 50% acetonitrile in deionized water at 55° C. with agitation. Calibration standards and tissue extraction solvent samples were diluted 10× in deionized water before analysis. Diluted standards and samples were analyzed at 1 μL injection volumes. Concentrations were reported as μg/g of gabapentin in tissue.

[2] = 1 wt. % minocycline, 1% hyaluronic acid decoy or none, p=0.0004
Protocol: Delivery of minocycline into porcine skin in vitro was measured and compared to delivery of minocycline from a composition of minocycline in saline (i.e, with no decoy molecule). Compositions were prepared containing of 1 wt. % minocycline and 1% of decoy molecule of hyaluronic acid with three molecular weights: 10,000 Da mean, 20,000 Da mean, and 30,000 Da mean. A control formulation containing 1 wt % minocycline in saline was also prepared

[3] = Transdermal delivery of a small molecule compound (summary); assay type: in vitro ADME; design: key: 0: on a scale using +symbols to reflect extent of the effect; −: on a scale using +symbols to reflect extent of the effect; +/−: on a scale using +symbols to reflect extent of the effect; on a scale using +symbols to reflect extent of the effect; ++: on a scale using +symbols to reflect extent of the effect; +++: on a scale using +symbols to reflect extent of the effect; ++++: on a scale using +symbols to reflect extent of the effect; +++++: on a scale using +symbols to reflect extent of the effect; details: compound of less than about 850 Da, hyaluronic acid decoy
From the text: (§1) It will be appreciated that Examples 1-6, 11, 12 illustrate hyaluronic acid as a decoy molecule exemplary of the decoy molecules contemplated herein. As described above, decoy molecules of collagen and elastin are contemplated, where the molecular weight of the decoy molecule can be selected to tailor the delivery of the agent of interest across the skin. The table below summarizes the effect of the decoy molecule (using the hyaluronic acid as exemplary) on the transdermal delivery of a small molecule compound (e.g, one with a molecular weight of less than about 850 Da), on the transdermal delivery of a macromolecule compound (e.g, a peptide or a protein), on the extent of penetration of the decoy molecule into skin upon topical application, and on the enhancement of water content in skin by the decoy molecule, on a scale using +symbols to reflect extent of the effect.

[4] = Transdermal delivery of a macromolecule compound (summary); assay type: in vitro ADME; design: key: 0: on a scale using +symbols to reflect extent of the effect; −: on a scale using +symbols to reflect extent of the effect; +/−: on a scale using +symbols to reflect extent of the effect; on a scale using +symbols to reflect extent of the effect; ++: on a scale using +symbols to reflect extent of the effect; +++: on a scale using +symbols to reflect extent of the effect; ++++: on a scale using +symbols to reflect extent of the effect; +++++: on a scale using +symbols to reflect extent of the effect; details: peptide or protein, hyaluronic acid decoy
From the text: as §1

[5] = Penetration of the decoy molecule into skin upon topical application (summary); assay type: in vitro ADME; design: key: 0: on a scale using +symbols to reflect extent of the effect; −: on a scale using +symbols to reflect extent of the effect; +/−: on a scale using +symbols to reflect extent of the effect; on a scale using +symbols to reflect extent of the effect; ++: on a scale using +symbols to reflect extent of the effect; +++: on a scale using +symbols to reflect extent of the effect; ++++: on a scale using +symbols to reflect extent of the effect; +++++: on a scale using +symbols to reflect extent of the effect
From the text: as §1

[6] = listed as disaccharide (400 Da)

Molecule: NCC1(CC(=O)O)CCCCC1 [gabapentin alone, gabapentin]
- gabapentin tissue levels [1]: 0.09 μg of gabapentin per gram of tissue

Molecule: CN(C)c1ccc(O)c2c1C[C@H]1C[C@H]3[C@H](N(C)C)C(O)=C(C(N)=O)C(=O)[C@@]3(O)C(O)=C1C2=O [minocycline]
- penetration of minocycline into porcine skin [2]: low native penetration

Molecule: hyaluronic acid [Hyaluronic Acid 10,000 Da]
- Delivery of a Small Molecule Compound ([3]; listed as 10,000 Da): +++
- Delivery of a Macromolecule Compound ([4]; listed as 10,000 Da): ++
- Hyaluronic Acid Skin Penetration ([5]; listed as 10,000 Da): ++

Molecule: hyaluronic acid [Hyaluronic Acid 20,000 Da]
- Delivery of a Small Molecule Compound ([3]; listed as 20,000 Da): ++++
- Delivery of a Macromolecule Compound ([4]; listed as 20,000 Da): +++++
- Hyaluronic Acid Skin Penetration ([5]; listed as 20,000 Da): ++

Molecule: hyaluronic acid [Hyaluronic Acid 100,000 Da degraded]
- Delivery of a Small Molecule Compound ([3]; listed as 100,000 Da degraded): ++++
- Delivery of a Macromolecule Compound ([4]; listed as 100,000 Da degraded): +++
- Hyaluronic Acid Skin Penetration ([5]; listed as 100,000 Da degraded): +++

Molecule: hyaluronic acid [Hyaluronic Acid 100,000 Da]
- Delivery of a Small Molecule Compound ([3]; listed as 100,000 Da): 0
- Delivery of a Macromolecule Compound ([4]; listed as 100,000 Da): 0
- Hyaluronic Acid Skin Penetration ([5]; listed as 100,000 Da): +/−

Molecule: hyaluronic acid [Hyaluronic Acid 3000 Da]
- Delivery of a Small Molecule Compound ([3]; listed as 3000 Da): +++
- Delivery of a Macromolecule Compound ([4]; listed as 3000 Da): +
- Hyaluronic Acid Skin Penetration ([5]; listed as 3000 Da): ++++

Molecule: hyaluronic acid [Hyaluronic Acid 5000 Da]
- Delivery of a Small Molecule Compound ([3]; listed as 5000 Da): +
- Delivery of a Macromolecule Compound ([4]; listed as 5000 Da): +
- Hyaluronic Acid Skin Penetration ([5]; listed as 5000 Da): +++

Molecule: hyaluronic acid [Hyaluronic Acid degraded 5000 Da]
- Delivery of a Small Molecule Compound ([3]; listed as degraded 5000 Da): −
- Delivery of a Macromolecule Compound ([4]; listed as degraded 5000 Da): −
- Hyaluronic Acid Skin Penetration ([5]; listed as degraded 5000 Da): ++++

Molecule: hyaluronic acid [Hyaluronic Acid disaccharide (400 Da)]
- Delivery of a Small Molecule Compound [3, 6]: 0
- Delivery of a Macromolecule Compound [4, 6]: 0
- Hyaluronic Acid Skin Penetration [5, 6]: +++++

Reference: patent US20190008795A1, “COMPOSITIONS FOR TOPICAL APPLICATION OF COMPOUNDS” (Illustris Pharmaceuticals, Inc., priority 2016, published 2019)
